Reference: ChEMBL document CHEMBL1201862, “PubChem BioAssay data set” (2004)
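Step 1: Grow cells in 96-well plates. Step 2: Expose to compound for 48 hours at 5 concentrations. Step 3: Interpolate endpoints linearly; if unreached, use highest concentration. Abbreviation: GI50, concentration required for 50% inhibition of growth.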 Activity calls are given as the source filed them. Cut-off read from the data, not from the text of the source: active = GI50 up to about 1.1 µM and inactive = higher.

What was measured:
Assay in all cases: inhibition of tumour cell growth, NCI panel, 48 h
MCF7 = test system: MCF7
A498 = test system: A498
COLO 205 = test system: COLO 205
786-0 = test system: 786-0
KM12 = test system: KM12
HOP-92 = test system: HOP-92
A549 = test system: A549
NCI/ADR-RES = test system: NCI/ADR-RES
Malme-3M = test system: Malme-3M
HCT-15 = test system: HCT-15
DU-145 = test system: DU-145
MOLT-4 = test system: MOLT-4
SK-MEL-28 = test system: SK-MEL-28
Hs-578T = test system: Hs-578T
SN12C = test system: SN12C
CAKI-1 = test system: CAKI-1
OVCAR-8 = test system: OVCAR-8
RXF 393 = test system: RXF 393
SK-MEL-2 = test system: SK-MEL-2
ACHN = test system: ACHN

| SMILES | GI50 (MCF7) | GI50 (A498) | GI50 (COLO 205) | GI50 (786-0) | GI50 (KM12) | GI50 (HOP-92) | GI50 (A549) | GI50 (NCI/ADR-RES) | GI50 (Malme-3M) | GI50 (HCT-15) | GI50 (DU-145) | GI50 (MOLT-4) | GI50 (SK-MEL-28) | GI50 (Hs-578T) | GI50 (SN12C) | GI50 (CAKI-1) | GI50 (OVCAR-8) | GI50 (RXF 393) | GI50 (SK-MEL-2) | GI50 (ACHN) |
| --- | --- | --- | --- | --- | --- | --- | --- | --- | --- | --- | --- | --- | --- | --- | --- | --- | --- | --- | --- | --- |
| COc1ccc(-n2c(SC(CN3CCOCC3)CN3CCCC3=O)nc3ccccc3c2=O)cc1 (stereo not given) | > 100 µM (inactive) | > 100 µM (inactive) | > 100 µM (inactive) | > 100 µM (inactive) | > 100 µM (inactive) | > 100 µM (inactive) | 87.7 µM (inactive) | > 100 µM (inactive) | 91.2 µM (inactive) | > 100 µM | > 100 µM (inactive) | 90.8 µM (inactive) | 82.6 µM (inactive) | > 100 µM (inactive) | > 100 µM (inactive) | 43.7 µM (inactive) | > 100 µM (inactive) | > 100 µM (inactive) | > 100 µM (inactive) | 46 µM (inactive) |
| CCN(CC)Cc1ccccc1CC(=O)N1c2ccccc2C(=O)Nc2cccnc21 | 41.2 µM (inactive) | > 100 µM (inactive) | 86.1 µM (inactive) | 62.2 µM (inactive) | > 100 µM (inactive) | > 100 µM (inactive) | > 100 µM (inactive) | 59.6 µM (inactive) | > 100 µM (inactive) | > 100 µM | > 100 µM (inactive) | 46.7 µM (inactive) | > 100 µM (inactive) | > 100 µM (inactive) | > 100 µM (inactive) | > 100 µM (inactive) | > 100 µM (inactive) | > 100 µM (inactive) | > 100 µM (inactive) | > 100 µM (inactive) |
| N=c1c2c(=S)n(-c3ccccc3)c(=S)n(-c3ccccc3)c2nc(SCCN2CCOCC2)n1-c1ccccc1 | 1.35 µM (inactive) | 3.52 µM (inactive) | 1.99 µM (inactive) | 1.76 µM (inactive) | 2.44 µM (inactive) | 1.82 µM (inactive) | 1.78 µM (inactive) | 3.67 µM (inactive) | 1.66 µM (inactive) | 1.91 µM | 1.83 µM (inactive) | 1.46 µM (inactive) | 2.1 µM (inactive) | 2.67 µM (inactive) | 2.06 µM (inactive) | 1.94 µM (inactive) | 2.06 µM (inactive) | 1.79 µM (inactive) | 2.86 µM (inactive) | 1.87 µM (inactive) |
| CCOC(=O)/C(=C\c1ccccc1)C(=O)CCN1CCOCC1 | 5.2 µM (inactive) | 16.7 µM (inactive) | 3.66 µM (inactive) | 7.78 µM (inactive) | 7.94 µM (inactive) | 5.86 µM (inactive) | 22.4 µM (inactive) | 3.06 µM (inactive) | 2.7 µM (inactive) | 3.2 µM | 17.2 µM (inactive) | 1.99 µM (inactive) | 3.54 µM (inactive) | 47.1 µM (inactive) | 8.65 µM (inactive) | 4.49 µM (inactive) | 4.06 µM (inactive) | 2.86 µM (inactive) | 17.8 µM (inactive) | 5.38 µM (inactive) |
| Cc1cn(C2CC(O)C(Cn3nncc3Cn3nc(Br)c(=O)[nH]c3=O)O2)c(=O)[nH]c1=O (stereo not given) | > 100 µM (inactive) | > 100 µM (inactive) | > 100 µM (inactive) | > 100 µM (inactive) | > 100 µM (inactive) | > 100 µM (inactive) | > 100 µM (inactive) | > 100 µM (inactive) | > 100 µM (inactive) | > 100 µM | > 100 µM (inactive) | > 100 µM (inactive) | > 100 µM (inactive) | > 100 µM (inactive) | > 100 µM (inactive) | > 100 µM (inactive) | > 100 µM (inactive) | > 100 µM (inactive) | > 100 µM (inactive) | > 100 µM (inactive) |
| COc1ccc(C(C)NNC(=O)c2cc[n+]([BH2-]C#N)cc2)cc1F (stereo not given) | > 100 µM (inactive) | > 100 µM (inactive) | > 100 µM (inactive) | > 100 µM (inactive) | > 100 µM (inactive) | > 100 µM (inactive) | > 100 µM (inactive) | > 100 µM (inactive) | > 100 µM (inactive) | > 100 µM | > 100 µM (inactive) | > 100 µM (inactive) | > 100 µM (inactive) | > 100 µM (inactive) | > 100 µM (inactive) | > 100 µM (inactive) | > 100 µM (inactive) | > 100 µM (inactive) | > 100 µM (inactive) | > 100 µM (inactive) |
| CC(C)[C@@H]1NC(=O)[C@@H]2N=C(O[C@H]2C)[C@H](C(C)C)NC(=O)C2N=C1O[C@H]2C | > 100 µM (inactive) | > 100 µM (inactive) | > 100 µM (inactive) | > 100 µM (inactive) | > 100 µM (inactive) | 94.4 µM (inactive) | > 100 µM (inactive) | > 100 µM (inactive) | > 100 µM (inactive) | > 100 µM | > 100 µM (inactive) | > 100 µM (inactive) | > 100 µM (inactive) | > 100 µM (inactive) | > 100 µM (inactive) | > 100 µM (inactive) | > 100 µM (inactive) | > 100 µM (inactive) | > 100 µM (inactive) | > 100 µM (inactive) |
| CC(=O)NC(=N/N=C1/C(=O)Nc2ccc(C)cc21)NC(C)=O | > 100 µM (inactive) | > 100 µM (inactive) | > 100 µM (inactive) | > 100 µM (inactive) | > 100 µM (inactive) | > 100 µM (inactive) | > 100 µM (inactive) | > 100 µM (inactive) | > 100 µM (inactive) | > 100 µM | > 100 µM (inactive) | > 100 µM (inactive) | > 100 µM (inactive) | > 100 µM (inactive) | > 100 µM (inactive) | > 100 µM (inactive) | > 100 µM (inactive) | 68.1 µM (inactive) | > 100 µM (inactive) | > 100 µM (inactive) |
| COc1cc(OC)c2c(=O)cc(-c3ccccc3F)[nH]c2c1 | 54.5 µM (inactive) | 48.2 µM (inactive) | 75.9 µM (inactive) | 47.9 µM (inactive) | 32.9 µM (inactive) | > 100 µM (inactive) | 38.5 µM (inactive) | 35.3 µM (inactive) | > 100 µM (inactive) | 28.6 µM | 76.4 µM (inactive) | 66.2 µM (inactive) | > 100 µM (inactive) | > 100 µM (inactive) | > 100 µM (inactive) | 61.5 µM (inactive) | 51.4 µM (inactive) | 29.8 µM (inactive) | > 100 µM (inactive) | > 100 µM (inactive) |
| CC(C)CCCC(C)[C@H]1CC[C@H]2NCCCC[C@]12C (stereo not given in full) | 2 µM (inactive) | 9.84 µM (inactive) | 1.73 µM (inactive) | 3.78 µM (inactive) | 2.68 µM (inactive) | 3.48 µM (inactive) | 6.64 µM (inactive) | 6.71 µM (inactive) | 4.61 µM (inactive) | 2.43 µM | 5.56 µM (inactive) | 2.28 µM (inactive) | 2.37 µM (inactive) | 6.82 µM (inactive) | 6.24 µM (inactive) | 7.05 µM (inactive) | 3.03 µM (inactive) | 2.14 µM (inactive) | 2.88 µM (inactive) | 2.07 µM (inactive) |
